Measurements: patent US5466673A, “Method of inhibiting calcium precipitation in an intraocular irrigating solution” (Senju Pharmaceutical Co., Ltd., priority 1993, dated 1995)

System: blood-aqueous barrier of the eye
Assay: Effect of the present compound on the blood-aqueous barrier of the eye (anterior chamber irrigation, carboxy-fluorescein leakage)
Assay type: in vivo, White rabbits
Details: mean ± S.E.
Protocol: White rabbits weighing about 2.5 kg were used.
Physiological saline, 0.06, 0.6 and 6 mM solutions of DCE-GS in physiological saline, and a 0.3 mM solution of GSSG (oxidized glutathione)in physiological saline were used as intraocular irrigating solutions and their effects on the blood-aqueous barrier of the eye were evaluated.
Two 23 G needles connected to a polyethylene tube were gently inserted into the anterior chamber of the eye of rabbits under anesthesia (ketamine hydrochloride: xylazine hydrochloride=1:1) and 0.5 ml/kg of 1% carboxy-fluorescein was injected into the auricular vein immediately before irrigation. Using a syringe pump, the intraocular irrigating solution was infused at the rate of 1.5 ml/min. and 25 μl of the outflowing intraocular irrigating solution and the blood were respectively collected at 15-minute intervals over the period of 1 hour and the intensity of florescence of each sample was determined with a spectrophotofluorometer. The collected blood was mixed with 2.5 ml of physiological saline and the mixture was centrifuged at 3000 rpm to separate the supernatant for use as a sample.
The degree (4) of protein leakage was calculated by means of the following equation. (Intensity of fluorescence of irrigating solution/intensity of fluorescence of blood)×100 (%)

| Compound | degree of protein leakage (0.3 mM in physiological saline, time 15 min, n 5) [%] | degree of protein leakage (0.3 mM in physiological saline, time 30 min, n 5) [%] | degree of protein leakage (0.3 mM in physiological saline, time 45 min, n 5) [%] | degree of protein leakage (0.3 mM in physiological saline, time 60 min, n 5) [%] | degree of protein leakage (0.06 mM in physiological saline, irrigation 1.5 ml/min, time 15 min, n 7) [%] | degree of protein leakage (0.06 mM in physiological saline, time 30 min, n 7) [%] | degree of protein leakage (0.06 mM in physiological saline, time 45 min, n 7) [%] | degree of protein leakage (0.06 mM in physiological saline, time 60 min, n 7) [%] | degree of protein leakage (0.6 mM in physiological saline, time 15 min, n 8) [%] | degree of protein leakage (0.6 mM in physiological saline, time 30 min, n 8) [%] | degree of protein leakage (0.6 mM in physiological saline, time 45 min, n 8) [%] | degree of protein leakage (0.6 mM in physiological saline, time 60 min, n 8) [%] | degree of protein leakage (6 mM in physiological saline, time 15 min, n 5) [%] | degree of protein leakage (6 mM in physiological saline, time 30 min, n 5) [%] | degree of protein leakage (6 mM in physiological saline, time 45 min, n 5) [%] | degree of protein leakage (6 mM in physiological saline, time 60 min, n 5) [%] |
| --- | --- | --- | --- | --- | --- | --- | --- | --- | --- | --- | --- | --- | --- | --- | --- | --- |
| oxidized glutathione [GSSG, reference compound] | 0.22 ± 0.03 | 0.17 ± 0.01 | 0.15 ± 0.03 | 0.15 ± 0.03 |  |  |  |  |  |  |  |  |  |  |  |  |
| N[C@@H](CCC(=O)N[C@@H](CSC(CC(=O)O)C(=O)O)C(=O)NCC(=O)O)C(=O)O (stereo partly drawn) [DCE-GS, S-(α,β-dicarboxyethyl) glutathione] |  |  |  |  | 0.16 ± 0.02 | 0.23 ± 0.05 | 0.11 ± 0.05 | 0.18 ± 0.03 | 0.13 ± 0.01 | 0.19 ± 0.02 | 0.15 ± 0.02 | 0.13 ± 0.02 | 0.13 ± 0.02 | 0.16 ± 0.02 | 0.22 ± 0.04 | 0.15 ± 0.02 |
